{"source": "patent US8501911B2", "about": "“Methods of reducing inflammation and mucus hypersecretion” (Biomarck Pharmaceuticals, Ltd, priority 1999, dated 2013)", "system": "NHBE cells", "test": "PMA+8-Br-cGMP-induced mucin secretion from NHBE cells (ELISA)", "format": "cell-based, human", "conditions": "for Mucin secretion level relative to media control: pre- and co-incubation with 100 nM PMA+1 μM 8-Br-cGMP (Results-M-1A/M-3A)", "experimental": "Peptide Blocking Studies—NHBE cells were preincubated with either the MANS or the RNS peptide (1-100 μM) for 15 min, and then PMA (100 nM)+8-Br-cGMP (1 μM) or UTP (100 μM) was added, and cells were incubated for an additional 15 min or 2 h. respectively. Mucin secretion was measured by ELISA and experimental results are designated as Results-I-2B-1 and Results-I-2B-2, as follows. […]\nMeasurement of Mucin Secretion by ELISA—Before collection of “base line” and “test” mucin samples, the accumulated mucus at the apical surface of the cells was removed by washing with phosphate-buffered saline, pH 7.2. To collect the base-line secretion, cells were incubated with medium alone, and secreted mucin in the apical medium was collected and reserved. Cells were rested for 24 h and then exposed to medium containing the selected stimulatory and/or inhibitory reagents (or appropriate controls), after which secreted mucin was collected and reserved as the test sample. Incubation times for the base line and the test were the same but varied depending on the test reagent utilized. Both base line and test secretions were analyzed by ELISA using an antibody capture method as known in the art. See, e.g., Harlow et al., Antibodies: A Laboratory Manual, pp. 570-573, Cold Spring Harbor Laboratory, Cold Spring Harbor, N.Y. (1988). The primary antibody for this assay was 17Q2 (Babco, Richmond, Calif.), a monoclonal antibody that reacts specifically with a carbohydrate epitope on human airway mucins. The ratio of test/base-line mucin, which is similar to a “secretory index”, was used to quantify mucin secretion, allowing each culture dish to serve as its own control and thus, minimizing deviation caused by variability among culture wells. Wright et al., Am. J. Physiol. 271, L854-L861 (1996). Levels of mucin secretion were reported as percentage of the medium control.\nMARCKS-related Peptides—Both the myristoylated N-terminal sequence (MANS) and the random N-terminal sequence (RNS) peptides were synthesized at Genemed Synthesis, Inc. (San Francisco, Calif.), then purified by high pressure liquid chromatography (>95% pure), and confirmed by mass spectroscopy with each showing one single peak with an appropriate molecular mass. The MANS peptide consisted of sequence identical to the first 24 amino acids of MARCKS, i.e. the myristoylated N-terminal region that mediates MARCKS insertion into membranes, MA-[…] (SEQ ID NO: 1) (where MA=N-terminal myristate chain). The corresponding control peptide (RNS) contained the same amino acid composition as the MANS but arranged in random order, MA-[…] (SEQ ID NO: 26). The presence of the hydrophobic myristate moiety in these synthetic peptides enhances their permeability to the plasma membranes, enabling the peptides to be taken up readily by cells. To determine the effects of these peptides on mucin secretion, cells were preincubated with the peptides for 15 min prior to addition of secretagogues, and mucin secretion was then measured by ELISA.\nAntisense Oligonucleotides—MARCKS antisense oligonucleotide and its corresponding control oligonucleotide were synthesized at Biognostik GmbH (Gottingen, Germany). NHBE cells were treated with 5 μM antisense or control oligonucleotide apically for 3 days (in the presence of 2 μg/ml lipofectin for the first 24 h). Cells were then incubated with secretagogues, and mucin secretion was measured by ELISA. Total RNA and protein were isolated from treated cells. MARCKS mRNA was assessed by Northern hybridization according to conventional procedures using human MARCKS cDNA as a probe. MARCKS protein level was determined by Western blot using purified anti-MARCKS IgG1 (clone 2F12) as the primary detection antibody.\nThe effect on mucus secretion of a myristoylated peptide containing the first 24 amino acids of the human MARCKS protein (MANS; myristoylated N-terminal sequence; SEQ ID NO: ) was tested. Cultured normal human bronchial epithelial cells as described above were used. […]", "key": {"[1]": {"conditions": "peptide 1 μM, 15 min preincubation, then PMA 100 nM+8-Br-cGMP 1 μM 15 min (Results-I-2B-1)"}, "[2]": {"conditions": "peptide 10 μM, 15 min preincubation, then PMA 100 nM+8-Br-cGMP 1 μM 15 min (Results-I-2B-1)"}, "[3]": {"conditions": "peptide 100 μM, 15 min preincubation, then PMA 100 nM+8-Br-cGMP 1 μM 15 min (Results-I-2B-1)"}}, "note": "Where “and” joins values, the source holds several entries; their conditions need not be identical. Equal entries are not always repeated. Where two headings read alike, the source gives them in different places. Residues, ends and D or L forms follow the SMILES beside them. *: point of attachment. Myristoyl = CCCCCCCCCCCCCC(=O)*"}
{"compound": "CCCCCCCCCCCCCC(=O)NCC(=O)N[C@@H](C)C(=O)N[C@@H](CCC(N)=O)C(=O)N[C@@H](Cc1ccccc1)C(=O)N[C@@H](CO)C(=O)N[C@@H](CCCCN)C(=O)N[C@H](C(=O)N[C@@H](C)C(=O)N[C@@H](C)C(=O)N[C@@H](CCCCN)C(=O)NCC(=O)N[C@@H](CCC(=O)O)C(=O)N[C@@H](C)C(=O)N[C@@H](C)C(=O)N[C@@H](C)C(=O)N[C@@H](CCC(=O)O)C(=O)N[C@@H](CCCNC(=N)N)C(=O)N1CCC[C@H]1C(=O)NCC(=O)N[C@@H](CCC(=O)O)C(=O)N[C@@H](C)C(=O)N[C@@H](C)C(=O)N[C@H](C(=O)N[C@@H](C)C(=O)O)C(C)C)[C@@H](C)O", "note": "[MANS peptide] (Myristoyl-GAQFSKTAAKGEAAAERPGEAAVA-OH; C-terminus assumed)", "values": [{"measurement": "Relative mucin secretion level referenced to stimulated level (M-3A-3) as 100%", "setting": "peptide 1 μM", "value": 90, "unit": "%"}, {"measurement": "Mucin secretion as % of control", "setting": "[1]", "value": 188, "unit": "%"}, {"measurement": "Mucin secretion level relative to media control", "setting": "peptide 1 μM", "value": 171, "unit": "%"}, {"measurement": "Relative mucin secretion level referenced to stimulated level (M-3A-3) as 100%", "setting": "peptide 10 μM", "value": 61, "unit": "%"}, {"measurement": "Mucin secretion as % of control", "setting": "[2]", "value": 129, "unit": "%"}, {"measurement": "Mucin secretion level relative to media control", "setting": "peptide 10 μM", "value": 117, "unit": "%"}, {"measurement": "Relative mucin secretion level referenced to stimulated level (M-3A-3) as 100%", "setting": "peptide 100 μM", "value": 16, "unit": "%"}, {"measurement": "Mucin secretion as % of control", "setting": "[3]", "value": 35, "unit": "%"}, {"measurement": "Mucin secretion level relative to media control", "setting": "peptide 100 μM", "value": "29% and 30%"}]}
{"compound": "CCCCCCCCCCCCCC(=O)NCC(=O)N[C@H](C(=O)N[C@@H](C)C(=O)N1CCC[C@H]1C(=O)N[C@@H](C)C(=O)N[C@@H](C)C(=O)N[C@@H](CCC(=O)O)C(=O)NCC(=O)N[C@@H](C)C(=O)NCC(=O)N[C@@H](C)C(=O)N[C@@H](CCC(=O)O)C(=O)N[C@H](C(=O)N[C@@H](CCCCN)C(=O)N[C@@H](CCCNC(=N)N)C(=O)N[C@@H](C)C(=O)N[C@@H](CO)C(=O)N[C@@H](C)C(=O)N[C@@H](CCC(=O)O)C(=O)N[C@@H](C)C(=O)N[C@@H](CCCCN)C(=O)N[C@@H](CCC(N)=O)C(=O)N[C@@H](C)C(=O)N[C@@H](Cc1ccccc1)C(=O)O)C(C)C)[C@@H](C)O", "note": "[RNS peptide, reference compound] (Myristoyl-GTAPAAEGAGAEVKRASAEAKQAF-OH; C-terminus assumed)", "values": [{"measurement": "Mucin secretion as % of control", "setting": "[1]", "value": 216, "unit": "%"}, {"measurement": "Mucin secretion as % of control", "setting": "[2]", "value": 208, "unit": "%"}, {"measurement": "Mucin secretion as % of control", "setting": "[3]", "value": 206, "unit": "%"}]}
{"compound": "C[C@@](O)(/C=C/[C@H]1CC=CC(=O)O1)[C@@H](C[C@@H](O)\\C=C/C=C\\C=C\\CO)OP(=O)(O)O", "note": "[fostriecin]", "values": [{"measurement": "activity at 0.001 µM", "setting": "Homo sapiens, NHBE, inhibitor 1 nM, 15 min preincubation, then PMA 100 nM+8-Br-cGMP 1 μM 15 min, read-out: Mucin secretion as % of control", "value": 198, "unit": "%"}, {"measurement": "activity at 0.01 µM", "setting": "Homo sapiens, NHBE, inhibitor 10 nM, 15 min preincubation, then PMA 100 nM+8-Br-cGMP 1 μM 15 min, read-out: Mucin secretion as % of control", "value": 182, "unit": "%"}, {"measurement": "activity at 0.1 µM", "setting": "Homo sapiens, NHBE, inhibitor 100 nM, 15 min preincubation, then PMA 100 nM+8-Br-cGMP 1 μM 15 min, read-out: Mucin secretion as % of control", "value": 170, "unit": "%"}, {"measurement": "activity at 0.5 µM", "setting": "Homo sapiens, NHBE, inhibitor 500 nM, 15 min preincubation, then PMA 100 nM+8-Br-cGMP 1 μM 15 min, read-out: Mucin secretion as % of control", "value": 134, "unit": "%"}]}
{"compound": "C=C1[C@@H](O)[C@@H]2O[C@]3(CC[C@H](/C=C/[C@@H](C)[C@@H]4CC(C)=C[C@@]5(O[C@H](C[C@@](C)(O)C(=O)O)CC[C@H]5O)O4)O3)CC[C@H]2O[C@@H]1[C@@H](O)C[C@H](C)[C@H]1O[C@@]2(CCCCO2)CC[C@H]1C", "note": "[okadaic acid]", "values": [{"measurement": "activity at 0.5 µM", "setting": "Homo sapiens, NHBE, read-out: Mucin secretion as % of control, inhibitor 500 nM, 15 min preincubation, then PMA 100 nM+8-Br-cGMP 1 μM 15 min", "value": 157, "unit": "%"}, {"measurement": "Reduction in mucin secretion level from PMA+8-Br-cGMP-stimulated level", "setting": "inhibitor 500 nM", "value": 27, "unit": "%"}, {"measurement": "Mucin secretion as % of control", "setting": "inhibitor 500 nM, 15 min preincubation, then PMA 100 nM+8-Br-cGMP 1 μM 15 min", "value": 155, "unit": "%"}]}
{"compound": "TNF-α", "values": [{"measurement": "Mucin secretion level, % of control", "setting": "TNF-α 10 ng/ml 4 h, then PMA 100 nM+8-Br-cGMP 1 μM 15 min", "value": 255, "unit": "%"}]}
